From patent US9557333B2, “Methods of treating gastrointestinal sarcoma patients depending on their sB7H6 serum level” (INSTITUT GUSTAVE ROUSSY, priority 2012, dated 2017)

What was measured:
[1] = tested on: sMIC; assay: Serum sMIC measured by ELISA longitudinally during IM treatment of GIST patients; assay type: in vivo, human; settings: followed during treatment
Method: 49 GIST patients were treated with imatinib (IM) from May 1994 until October 2010 (BFR14 cohort). Patients' samples were provided by the Gustave Roussy Institute (Villejuif, France) and the Centre Léon Bérard (Lyon). Sera were drained from blood drawn during control visits. Clinical responses were assessed by computed tomography (CT) scan and the responses were classified according to the RECIST criteria. GIST tumor samples were obtained following surgery carried out at the Gustave Roussy Institute (Villejuif, France).
(§1) sB7H6 and sMIC were assessed from the sera of patients by the ELISA method.

[2] = tested on: sB7H6; assay: Serum sB7H6 measured by ELISA longitudinally during IM treatment of GIST patients; assay type: in vivo, human
Method: 49 GIST patients were treated with imatinib (IM) from May 1994 until October 2010 (BFR14 cohort). Patients' samples were provided by the Gustave Roussy Institute (Villejuif, France) and the Centre Léon Bérard (Lyon). Sera were drained from blood drawn during control visits. Clinical responses were assessed by computed tomography (CT) scan and the responses were classified according to the RECIST criteria.
as §1
Soluble B7-H6 detection was assessed from sera of patients by the ELISA method: 17B1.3 mAbs was coated at 5 μg/ml in 0.1 M NaHCO3 solution overnight at 4° C. in 96-well Nunc-Immuno™ plates (Thermo Scientific). Blocking solution (PBS supplemented with 3% BSA) was then added overnight at 4° C. After discarding this solution, serial dilutions of sB7-H6 were incubated for 3 hours at room temperature. Then biotin-conjugated 9G9.2 was added to each well (1 μg/ml in PBS supplemented with 1% BSA) for 1 hour at room temperature. Anti-biotin HRP (Sigma-Aldrich) was then added for 1 hour at room temperature. Finally, BD Optia TMB substrate (BD Biosciences) was used to reveal the staining and left to incubate for 15-30 minutes at room temperature. The reaction was stopped with 1 M HCl and the optic density (OD) at 450 nm was read with Apollo LB 911 from Berthold.

`Cc1ccc(NC(=O)c2ccc(CN3CCN(C)CC3)cc2)cc1Nc1nccc(-c2cccnc2)n1` [IM, imatinib] was tested, and the “levels of sMIC in sera following IM treatment” value [1] was “tend to decrease”, the “levels of sB7H6 in sera after 1 year of IM treatment” value ([2]; after 1 year of treatment) was “not detected” and the “levels of sB7H6 in sera during IM treatment” value ([2]; followed with time of treatment) was “decreased with the time of treatment”.
